Experimental findings from ChEMBL document CHEMBL1140503, “Discovery of 1,1-dioxo-1,2,6-thiadiazine-5-carboxamide derivatives as cannabinoid-like molecules with agonist and antagonist activity” (Bioorg Med Chem, 2007) are described below.

For assay [1], the target named is Cannabinoid receptor 1 (Mus musculus) (UniProt P47746). Briefly: (§1) Agonist activity at CB1 receptor in ICR mouse vas deferens assessed as inhibition of electrically-stimulated contraction. The class given is functional, tissue-based.
In assay [2] the target is T1, Cannabinoid receptor 1 (Mus musculus, UniProt P47746). Briefly: Antagonist activity at CB1 receptor in ICR mouse vas deferens assessed as reversal of WIN-55212-2-induced effect on electrically-stimulated contraction. The class given is functional, tissue-based. To be noted: read-out: pA2 (converted).
The target of assay [3] is T1, Cannabinoid receptor 1. The assay is described as §1. In kind it is functional, tissue-based.
Assay [4] is described as follows: Antagonism of WIN-55212-2 mediated antinociceptive activity in ICR mouse at 1 mg/kg ip dose. Also noted: dose 1 mg/kg. The class given is functional, organism-based. Conditions: filed as antagonist.
The subject of assay [5] is Mus musculus. Briefly: Prevention of spontaneous activity reduction in ICR mouse at 1 mg/kg, ip. The class given is functional, organism-based. Also on record: dose 1 mg/kg.
Assay [6] relates to Mus musculus. Kind of assay: Induction of catalepsy in ICR mouse at 1.5 mg/kg, ip by ring test. In kind it is functional, organism-based. Also on record: dose 1.5 mg/kg.
Assay [7] concerns Mus musculus. Briefly: Antinociceptive activity in ICR mouse at 1.5 mg/kg, ip by hot plate test. In kind it is functional, organism-based. Also noted: dose 1.5 mg/kg.
Assay [8] relates to Mus musculus. Briefly: Induction of hypothermic effect in ICR mouse at 1.5 mg/kg, ip. Also noted: dose 1.5 mg/kg. The class given is functional, organism-based.
The test system of assay [9] is Mus musculus. Kind of assay: Inhibition of spontaneous motility in ICR mouse at 1.5 mg/kg, ip. In kind it is functional, organism-based. Also on record: dose 1.5 mg/kg.
In assay [10] the test system is Mus musculus. Kind of assay: Increase in locomotory activity in ICR mouse at 20 mg/kg, ip. The class given is functional, organism-based. Also on record: dose 20 mg/kg.
The subject of assay [11] is Mus musculus. Kind of assay: Effect on cannabinoid behavioral sign in ICR mouse at 0.2 mg/kg, icv. Also on record: dose 0.2 mg/kg. In kind it is functional, organism-based.

The source made the active and inactive calls. No cut-off for these calls is given here.

Sequence of Cannabinoid receptor 1 (Mus musculus) (P47746 whole entry): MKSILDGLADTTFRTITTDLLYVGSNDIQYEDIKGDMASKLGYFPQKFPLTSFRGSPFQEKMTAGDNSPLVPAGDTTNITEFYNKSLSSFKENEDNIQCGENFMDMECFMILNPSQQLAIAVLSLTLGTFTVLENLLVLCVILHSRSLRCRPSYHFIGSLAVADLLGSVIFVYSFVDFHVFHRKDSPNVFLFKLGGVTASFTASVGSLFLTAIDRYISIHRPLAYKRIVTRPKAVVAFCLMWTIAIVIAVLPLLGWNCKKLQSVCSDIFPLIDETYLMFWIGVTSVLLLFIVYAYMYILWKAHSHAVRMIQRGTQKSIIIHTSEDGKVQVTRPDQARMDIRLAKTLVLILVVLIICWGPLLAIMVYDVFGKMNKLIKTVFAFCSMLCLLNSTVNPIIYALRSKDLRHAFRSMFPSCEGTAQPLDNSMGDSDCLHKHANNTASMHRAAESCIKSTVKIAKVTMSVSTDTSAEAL
T1 sequence (P47746 whole entry): as above

In the case of `Cc1cc(C2=CC(C(=O)NN3CCCCC3)=NS(=O)(=O)N2Cc2ccccc2)ccc1Cl`, the Agonism entry in [1] was “inactive”.
As to `CC1=CC(C(=O)NN2CCCCC2)=NS(=O)(=O)N1Cc1ccccc1`, the Agonism entry in assay [1] was “inactive”.
For `CCCCCCN1C(c2ccc(Cl)cc2)=CC(C(=O)NN2CCCCC2)=NS1(=O)=O`, the Kb on Cannabinoid receptor 1 [2] is 0.209 µM. On Cannabinoid receptor 1 [3], the EC50 is 8.44 µM.
In the case of `O=C(Nc1ccccc1)C1=NS(=O)(=O)N(Cc2ccccc2)C(c2ccc(Cl)cc2)=C1`, the EC50 at Cannabinoid receptor 1 [3] turned out to be 5.73 µM.
Turning to `O=C(NN1CCCCC1)C1=NS(=O)(=O)N(Cc2ccccc2)C(c2ccc(Cl)cc2)=C1`, in assay [4], the Antagonism result is “Antagonist”. Also, the Kb on Cannabinoid receptor 1 [2] is 0.12 µM. For the same compound, the EC50 at Cannabinoid receptor 1 [3] was found to be 13.5 µM.
As to `Cc1c(C(=O)NN2CCCCC2)nn(-c2ccc(Cl)cc2Cl)c1-c1ccc(Cl)cc1`, in assay [4], the Antagonism entry was “Antagonist”.
As to `CC1=CC(C(=O)NN2CCOCC2)=NS(=O)(=O)N1Cc1ccccc1`, the Agonism entry in [1] is “inactive”.
Same read-out and setting: with `Cc1cc(C2=CC(C(=O)NC3C4(C)CCC(C4)C3(C)C)=NS(=O)(=O)N2Cc2ccccc2)ccc1Cl` (stereo not given) the entry was “inactive”.
In the case of `O=C(NN1CCCCC1)C1=NS(=O)(=O)N(C2CCCCC2)C(c2ccc(Br)cc2)=C1`, the EC50 on Cannabinoid receptor 1 [3] turned out to be 38.4 µM.
On the same count and under the same terms, with `Cc1cc(C2=CC(C(=O)NC3CCCCC3)=NS(=O)(=O)N2Cc2ccc(Cl)cc2Cl)ccc1Cl` the figure was 36.9 µM.
Regarding `CC1=CC(C(=O)NN2CCCCC2)=NS(=O)(=O)N1C1CCCCC1`, the Agonism entry in assay [1] was “inactive”.
With `Cc1c(C(=O)c2cccc3ccccc23)c2cccc3c2n1[C@H](CN1CCOCC1)CO3`, the outcome in the assay with Mus musculus [5], in the assay on Mus musculus [6], with Mus musculus [7], in the assay with Mus musculus [8] and with Mus musculus [9] was Active.
On to `CC12CCC(C1)C(C)(C)C2NC(=O)C1=NS(=O)(=O)N(Cc2ccccc2)C(c2ccc(Cl)cc2)=C1` (stereo not given), for which the outcome in the assay with Mus musculus [10] was Active. The outcome with Mus musculus [11] was inactive. Also, the EC50 at Cannabinoid receptor 1 [3] came to 11.9 µM.
Consider `CC12CCC(C1)C(C)(C)C2NC(=O)C1=NS(=O)(=O)N(Cc2ccc(Cl)cc2Cl)C(c2ccc(Cl)cc2)=C1` (stereo not given), for which the Agonism result in [1] is “inactive”.
As to `CCCCCCN1C(C)=CC(C(=O)NN2CCCCC2)=NS1(=O)=O`, the EC50 at Cannabinoid receptor 1 [3] came out at 36.9 µM.
In the case of `O=C(NN1CCCCC1)C1=NS(=O)(=O)N(Cc2ccccc2)C(c2ccc(Br)cc2)=C1`, the Agonism entry in [1] was “inactive”.
On the same count and under the same terms, with `CC1=CC(C(=O)NC2CCCCC2)=NS(=O)(=O)N1c1ccccc1` the entry was “inactive”.
Same read-out and setting: in the case of `O=C(NN1CCCCC1)C1=NS(=O)(=O)N(Cc2ccc(Cl)cc2Cl)C(c2ccc(Cl)cc2)=C1` it was “inactive”; in that of `CC1=CC(C(=O)NN2CCCCC2)=NS(=O)(=O)N1c1ccc(Cl)cc1`, “inactive”; in that of `O=C(NN1CCOCC1)C1=NS(=O)(=O)N(Cc2ccccc2)C(c2ccc(Br)cc2)=C1`, “inactive”.
Still for that read-out and setting: with `O=C(NN1CCCCC1)C1=NS(=O)(=O)N(Cc2ccc(Cl)cc2Cl)C(c2ccc(Br)cc2)=C1` the entry was “inactive”.
